Measured values reported in patent US12059413B2, “Methods of inhibiting viruses using compositions targeting TSG101-ubiquitin interaction” (The Research Foundation for the State University of New York, priority 2016, dated 2024).

How the values were obtained:
Type in all cases: cell-based
HIV-1 NL4-3 [1] = assay: Spreading infection of Jurkat cells infected with NL4-3, p24 capture ELISA
Procedure: FIG. 16A-B. N16 inhibition of HIV-1 transmission in a spreading infection in Jurkat cells. A) Schematic diagram summarizing experimental protocol. Jurkat cells (triplicate samples of 5×10^5/well) were incubated for 2 hr with HIV-1 NL4-3 in treatment media containing 50 μM N16 or control vehicle (DMSO). At the end of this period, unbound virus was removed by centrifugation and the cells washed once, resuspended in fresh media and returned to the 37° C. incubator. For the next 15 days, tissue culture media was removed daily by centrifugation and saved for virus measurement by p24 capture ELISA and cells were replenished with fresh control or N16 treatment media. B) ELISA readings. In control media (containing DMSO), virus replication peaked at day 11; in the presence of N16, production peaked at 13 days. […] Cells were monitoring periodically for viability by Trypan Blue assay. To test their ability to produce virus after this sustained exposure, at day 15 the N16-treated cells were washed, fresh media without inhibitor was added and the cells were incubated 4 days longer (to day 19). The supernatant was collected, the cells were washed again and then incubated for another 4 days in media with inhibitor, adding fresh inhibitor daily. The final supernatant was collected on day 23. […] Thus, the cells maintained the ability to produce virus and the virus in the population at 15 days was essentially as susceptible to N16 as the initial virus population used to infect the Jurkat cells. Number of independent trials: n=2.
To investigate whether the ability to bind the UEV domain could affect Tsg101's function during HIV's budding process, viral particle production was tested (FIG. 15). […] Addition of N16 at 24 hr post-transfection had little effect on budding even at higher concentrations (FIG. 15A, bottom). […] After 15 days, virus production was reduced by 15-fold. Cell viability was maintained under these conditions of sustained drug exposure as indicated by trypan blue viability assay every 3rd day. […] Following the re-addition of N16 to the media, virus titer at this point was reduced 50-fold 4 days indicating maintenance of drug susceptibility.

cells = assay: Cytotoxicity / cell metabolic activity on exposure to N16
Text: We investigated the specificity of the inhibitory effect. F15 and N16 impaired Tsg101-co-localization with Gag on the plasma membrane (c.f, FIG. 19) and reduced release of the VLPs assembled by Gag (c.f, FIG. 15). […] Cell metabolic activity was not affected after exposure to N16 for 24 hr; it decreased by less than 10% after exposure to N16 for 48 hr (not shown). Tsg101 localization to the midbody of dividing cells requires its recruitment to that location by centrosomal protein of 55k (CEP55) which binds a site in the Tsg101 Pro-rich domain (aa 154-166) (Lee, H. H., et al. (2008)). Finding this function unaffected at a concentration inhibitory to virus budding is consistent with the lack of any indication that cell division was reduced in the presence of N16. The lack of effect on this function also supports the specificity of N16 targeting as limited to functions of the Tsg101 UEV domain. EGF ligand-binding to EGFR on the cell surface signals receptor internalization, ubiquitination, and sequential ESCRT 0-, I-, II- and III-mediated transport to degradative compartments, ultimately lowering the EGFR steady-state level (Tomas, A., et al. (2014)). This trafficking requires the engagement of the P(T/S)AP-binding pocket in the Tsg101 UEV domain with the PSAP motif in hepatocyte growth factor-regulated tyrosine kinase substrate (Hrs), a component of ESCRT-0 (Lu, Q., et al. (2003)). The down-regulation function remained unimpaired at concentrations well above 50 JAM.

HIV-1 NL4-3 [2] = assay: Viral particle production from 293T cells transfected with pNL4-3, p24 ELISA
Procedure: FIG. 15A-D. N16 inhibits HIV-1 NL4-3 and Gag VLP production. A) Effect on virus production. Virus particles from N16-treated 293T cells transfected with pNL4-3 as determined by ELISA assay. Top, The compound was added 6 hr prior to DNA transfection and tissue culture media was harvested 24 hr later. Bottom, The compound was added at the indicated concentration 24 hr after DNA transfection and tissue culture media was harvested 24 hr later. Assay values were normalized to that of the DMSO carrier control. B) Effect on virus infectivity. Infectious viral particles per ng p24 as determined by MAGI assay. C) Left, Electron microscopy of particles at cell surface at 24 hr post-N16 addition; Right, Quantitative analysis of budding morphologies. Cells expressing WT- or P7L-NL4-3 were exposed to DMSO carrier or 50 μM N16. Arrows indicate emerging ‘Early’ buds. D) Effects on Gag VLP production. Top, Western blot analysis. Cells treated at the indicated concentration were transfected with DNA encoding Gag-HA. At the end of the treatment period, tissue culture media was removed for VLP isolation. […] Bottom, Quantitative analysis. […]
For production of virus particles, 293T cells were transfected with pNL4-3-ΔEnv and pIIIB Env3-1 plasmids and for virus-like particles (VLP), with pCMV-Gag-HA as previously described (Watanabe et al. (2013)). For specific infectivity, media-associated p24 was determined by ELISA (Immunodiagnostics, Inc.) and equivalent amounts of p24 were used to infect HeLa-CD4+-LTR-3 gal cells for infectivity measurement by the multinuclear activation of a galactosidase indicator (MAGI) assay. […] For cell-associated Gag analysis, cell pellets were lysed with either Triton X-100 or RIPA buffer with complete mini protease inhibitor cocktail (Roche) and analyzed by Western blotting. Protein bands were visualized using an infrared-based imaging system (Odyssey, LI-COR Biotechnology) and band intensities measured using the Li-Cor Odyssey software version 2.1.15. Virus particle release efficiency was calculated [VLP signal intensity/(VLP signal intensity+cell lysate signal intensity)]. […]

## COc1ccc2[nH]c([S+]([O-])Cc3ncc(C)c(OC)c3C)nc2n1 (centres unmarked) [N16, tenatoprazole]
HIV-1 NL4-3 [1]; 50 μM N16, Jurkat cells, peak values / after 15 days
  reduction of virus production: 15 fold
HIV-1 NL4-3 [1]; 50 μM N16, control peaked at day 11
  time of peak virus production: 13 days
HIV-1 NL4-3 [1]; media without inhibitor, 4 days (day 15 to 19)
  resurgence of virus when N16 removed: 10 fold
HIV-1 NL4-3 [1]; re-addition of N16, 4 days (to day 23)
  reduction of virus on re-addition of N16: 50 fold
HIV-1 NL4-3 [1]; sustained drug exposure, every 3rd day
  cell viability, trypan blue assay: maintained
cells; 50 μM, 24 hr exposure
  cytotoxicity: did not induce detectable cytotoxicity
cells; exposure to N16 for 24 hr
  cell metabolic activity: not affected
cells; exposure to N16 for 48 hr, not shown
  decrease of cell metabolic activity: less than 10%
HIV-1 NL4-3 [2]; Human immunodeficiency virus 1, NL43, HEK-293T, 6 h, N16 added six hours before transfection, 293T cells
  EC50: 25 to 50 µM
HIV-1 NL4-3 [2]; addition at 24 hr post-transfection, even at higher concentrations
  effect on budding when added 24 hr post-transfection: little effect
HIV-1 NL4-3 [2]; c.f. FIG. 15
  lowest concentration achieved in tissue culture assays under optimal conditions: 25 to 50 µM
